{
  "source": "patent US4703061A",
  "about": "“Gamma-aminobutyric acid derivatives, process for production thereof, and use thereof as medicaments” (priority 1984, dated 1987)",
  "key": {"[1]": {"tested_on": "planar locomotor activity of mice", "assay": "Effects on planar locomotor activity, automex method", "format": "in vivo, ddY-strain male mice", "protocol": "(§1) In Tests 1 to 4 given below, ddY-strain male mice (body weight 20-25 g) were used, and the experiments were carried out in a semi-soundproof, constant-temperature room kept at a temperature of 23±1° C. and a humidity of 55±2%. The mice were allowed to take feed and water freely.\nThe effects of the test compound on planar locomotor activity of the mice were examined by using an automex activity meter (made by Columbus Company). […] The test compound was intraperitoneally administered to the mice in doses indicated. Immediately then, five mice were put into each of transparent plastic cages (27×17×17 cm), and placed on the automex activity meter. The motor activity for 30 minutes was measured at 5 minutes intervals, and compared with that of the control group."}, "[2]": {"tested_on": "motor activity enhanced by methamphetamine", "assay": "Antagonistic effect against methamphetamine (automex method)", "format": "in vivo, ddY-strain male mice", "details": "for Motor activity (total number of counts): 500 mg/kg i.p. + methamphetamine 3 mg/kg s.c.", "protocol": "as §1\nTest 2: Antagonistic effect against methamphetamine (automex method)\nMice were used in 5-membered groups. Each of the test compounds was intraperitoneally administered to the mice in a predetermined dose, and immediately then, the mice were subcutaneously injected with methamphetamine in a dose of 3 mg/kg. The action of the test compounds on motor activity enhanced by methamphetamine was examined in accordance with the automex method given above."}, "[3]": {"tested_on": "motor activity induced by atropine", "assay": "Antagonistic effect against atropine (automex method)", "format": "in vivo, ddY-strain male mice", "details": "600 mg/kg i.p. + atropine 30 mg/kg s.c.", "protocol": "as §1\nTest 4: Antagonistic effect against atropine (automex method)\nEach of the test compounds was intraperitoneally administered to mice divided into 6-membered groups, and immediately then, atropine was subcutaneously injected into the mice in a dose of 30 mg/kg. The effect of each test compound on the enhancement of motor activity induced by atropine was examined in accordance with the automex method."}, "in vivo": {"assay": "in vivo", "details": "mouse, in vivo, ip", "protocol": "(§2) Calcium 4-(3,5-dihydroxy-3-methylpentylamide) butyrate was intraperitoneally administered in doses of 500 mg/kg and 1,000 mg/kg respectively to eight ddY-strain male mice (body weight 20 to 25 g)."}, "ddY-strain male mice [4]": {"tested_on": "ddY-strain male mice", "assay": "Toxicity test, intraperitoneal (LD50)", "details": "500 mg/kg and 1,000 mg/kg i.p.; result in words", "protocol": "as §2"}, "ddY-strain male mice [5]": {"tested_on": "ddY-strain male mice", "assay": "Irwin's observation method (behavior, nervous, autonomic nervous and toxic symptoms)", "format": "in vivo", "details": "1,000 mg/kg or below, i.p.; vs control group", "from_the_text": "These mice were also observed for changes in behavior, nervous symptoms, autonomic nervous symptoms, and toxic symptoms in accordance with the Irwin's observation method."}},
  "note": "Counter-ions that a name gives are not always drawn.",
  "data": [
    {"smiles": "CC(O)(CCO)CC(=O)NCCCC(=O)O", "note": "(stereo not shown) [MV-GABA-Ca salt, calcium 4-(3,5-dihydroxy-3-methylpentylamide) butyrate]", "values": [
      {"measurement": "Motor activity (total number of counts)", "setting": "[1]; 500 mg/kg i.p., 5 minutes", "value": 172, "unit": "counts"},
      {"measurement": "Motor activity (total number of counts)", "setting": "[1]; 500 mg/kg i.p., 10 minutes", "value": 241, "unit": "counts"},
      {"measurement": "Motor activity (total number of counts)", "setting": "[1]; 500 mg/kg i.p., 15 minutes", "value": 307, "unit": "counts"},
      {"measurement": "Motor activity (total number of counts)", "setting": "[1]; 500 mg/kg i.p., 20 minutes", "value": 405, "unit": "counts"},
      {"measurement": "Motor activity (total number of counts)", "setting": "[1]; 500 mg/kg i.p., 25 minutes", "value": 505, "unit": "counts"},
      {"measurement": "Motor activity (total number of counts)", "setting": "[1]; 500 mg/kg i.p., 30 minutes", "value": 558, "unit": "counts"},
      {"measurement": "Motor activity (total number of counts)", "setting": "[1]; 1000 mg/kg i.p., 5 minutes", "value": 91, "unit": "counts"},
      {"measurement": "Motor activity (total number of counts)", "setting": "[1]; 1000 mg/kg i.p., 10 minutes", "value": 128, "unit": "counts"},
      {"measurement": "Motor activity (total number of counts)", "setting": "[1]; 1000 mg/kg i.p., 15 minutes", "value": 156, "unit": "counts"},
      {"measurement": "Motor activity (total number of counts)", "setting": "[1]; 1000 mg/kg i.p., 20 minutes", "value": 177, "unit": "counts"},
      {"measurement": "Motor activity (total number of counts)", "setting": "[1]; 1000 mg/kg i.p., 25 minutes", "value": 189, "unit": "counts"},
      {"measurement": "Motor activity (total number of counts)", "setting": "[1]; 1000 mg/kg i.p., 30 minutes", "value": 203, "unit": "counts"},
      {"measurement": "Motor activity (total number of counts)", "setting": "[2]; 5 minutes", "value": 10, "unit": "counts"},
      {"measurement": "Motor activity (total number of counts)", "setting": "[2]; 10 minutes", "value": 11, "unit": "counts"},
      {"measurement": "Motor activity (total number of counts)", "setting": "[2]; 15 minutes", "value": 22, "unit": "counts"},
      {"measurement": "Motor activity (total number of counts)", "setting": "[2]; 20 minutes", "value": 38, "unit": "counts"},
      {"measurement": "Motor activity (total number of counts)", "setting": "[2]; 25 minutes", "value": 71, "unit": "counts"},
      {"measurement": "Motor activity (total number of counts)", "setting": "[2]; 30 minutes", "value": 126, "unit": "counts"},
      {"measurement": "antagonistic effect against the increase of motor activity induced by methamphetamine", "setting": "[2]; 500 mg/kg, result in words", "value": "markedly inhibited the motor activity of mice enhanced by methamphetamine"},
      {"measurement": "Motor activity (total number of counts)", "setting": "[3]; 5 minutes", "value": 8, "unit": "counts"},
      {"measurement": "Motor activity (total number of counts)", "setting": "[3]; 10 minutes", "value": 12, "unit": "counts"},
      {"measurement": "Motor activity (total number of counts)", "setting": "[3]; 15 minutes", "value": 19, "unit": "counts"},
      {"measurement": "Motor activity (total number of counts)", "setting": "[3]; 20 minutes", "value": 27, "unit": "counts"},
      {"measurement": "Motor activity (total number of counts)", "setting": "[3]; 25 minutes", "value": 47, "unit": "counts"},
      {"measurement": "Motor activity (total number of counts)", "setting": "[3]; 30 minutes", "value": 92, "unit": "counts"},
      {"measurement": "LD50", "setting": "in vivo", "value": "> 2000", "unit": "mg/kg"},
      {"measurement": "death", "setting": "ddY-strain male mice [4]", "value": "no case of death"},
      {"measurement": "changes in behavior, nervous symptoms, autonomic nervous symptoms, and toxic symptoms", "setting": "ddY-strain male mice [5]", "value": "no marked difference from the control group could be found"}
    ]}
  ]
}
